Results as given in US12295973B2 (Fred Hutchinson Cancer Center, priority 2017, dated 2025).
Where a SMILES comes first, the peptide text is derived from it. [ ]: non-standard residue; d: D form. The star is where a group is joined. dPhe(4-NHCONH2) = NC(=O)Nc1ccc(C[C@@H](N)C(=O)O)cc1; Dihydroorotyl(S) = O=C1C[C@@H](C(=O)*)NC(=O)N1; dPhe(4-Cl) = N[C@H](Cc1ccc(Cl)cc1)C(=O)O; Phe(4-NH2) = Nc1ccc(C[C@H](N)C(=O)O)cc1; d2Nal = N[C@H](Cc1ccc2ccccc2c1)C(=O)O; Lys(iPr) = CC(C)NCCCC[C@H](N)C(=O)O; d3Pal = N[C@H](Cc1cccnc1)C(=O)O

Key:
LT-HSCs [1] = test: Cell apoptosis by AnnexinV/DAPI staining after radiation exposure; format: in vivo, mouse; conditions: vs vehicle
Source text: To further validate this hypothesis, two additional models were used to force HSCs out of their quiescence phase, Poly I:C and sub-lethal dose of total body irradiation (SL-TBI)^35,42,43. To eliminate any potential effects of downstream sex steroids on HSCs, all cohorts of mice in these studies had been surgically castrated.

LT-HSCs [2] = test: Gene expression in LT-HSCs purified after 300cGy irradiation; format: in vivo, mouse
Protocol: To gain some insights in to the molecular changes mediated by LHRH-Ant treatment on HSCs LT-HSCs were purified after 300cGy irradiation and expression of key genes associated with quiescence, proliferation, DNA damage response and apoptosis of HSCs was assessed. […] Importantly, both Bcl-2 and Mcl-1 have been implicated in regulating HSC quiescence and survival respectively^45,46.
Real time PCR: Reverse transcription-PCR was performed with QuantiTect reverse transcription kit (QIAGEN). For real-time PCR, specific primer and probe sets were obtained from Applied Biosystems as follows: β-actin (Mm01205647_g1); HPRT (Mm00446968_m1); AR (Mm00442688_m1); FSHR (Mm00442819_m1); LHCGR (Mm00442931_m1). PCR was done on ABI 7500 (Applied Biosystems) or Step-One Plus (Applied Biosystems) with TaqMan Universal PCR Master Mix (Applied Biosystems). Relative amounts of mRNA were calculated by the Ct method.
Statistics: Bars and error bars represent the mean+SEM for the various groups. For most experiments, nonparametric testing was performed if normal distribution could not be assumed. All tests performed are two sided. Statistical analysis between two groups was performed with the nonparametric, unpaired Mann-Whitney U test. Tests performed are two sided, except for gene category analysis. Differential expression of gene categories was computed using Fisher's method and the input p-value for each individual gene from a category is computed from a one sided test. Survival data were analyzed with the Mantel-Cox log-rank test. Parametric t test was used for FIG. 6H right panel. The experiments were not randomized and the investigators were not blinded to the group allocation during the experiments or when assessing the outcomes. To ensure adequate power for statistical analysis at least five samples per group were tested. In general variation within groups and between experiments was low, however to take into account inter-experimental variation all experiments were performed at least twice. To account for intra-experimental variation, particularly for in vitro studies, several wells per conditions were assessed with primary sample material coming from at least two different mice. No samples or animals were excluded from the analysis except for mouse peripheral blood analysis where outliers were detected prior to the analysis with two-sided Grubbs' test for outliers (GraphPad). All statistics were calculated and display graphs generated using GraphPad 6.

functional HSCs = test: Adapted competitive repopulation functional assay (BM and spleen cells of treated L-TBI mice transplanted into irradiated hosts); format: in vivo, mouse; conditions: cells collected day 14 after L-TBI; vs recipients of cells from vehicle-treated mice
Protocol: To investigate the specific regenerative effects mediated by LHRH-Ant treatment on the hematopoietic stem and progenitor cell (HSPC) compartment, BM were analyzed at several time points after L-TBI. […] To determine hematopoietic functional potential, colony-forming unit activity was next quantified to determine the effects of LHRH-Ant on the recovery of committed hematopoietic progenitor cells. […] Consistent with these functional findings, on day 14 after L-TBI, expansion of LSKs as well as their downstream progenitors in mice given LHRH-Ant were found (FIGS. 2F, 2G). […] However, given the changes in HSC phenotype after radiation, the standard competitive repopulation functional assay was adapted to evaluate the presence and relative quantity of functional HSCs after L-TBI. Specifically, all cells from the BM and spleen (to account for potential changes to circulating HSCs) were collected and transplanted from vehicle or LHRH-Ant treated mice at day 14 after L-TBI into irradiated hosts (along with a rescue dose of congenic WBM cells to ensure survival). […]
Bone marrow transplant: In the competitive BM transplant, whole BM from CD45.2+ (vehicle or LHRH-Ant) donors and were collected and transplanted into lethally irradiated CD45.1+ mice (1100 cGy TBI, split dose) along with 2.5×10^5 CD45.1+ competitors, through tail vein injection. Donor chimerism was monitored monthly after transplant. […]

mice exposed to L-TBI = test: Mouse survival after lethal total body irradiation (L-TBI, 840cGy); format: in vivo
Source text: Description. Inhibition of sex steroids, which can be achieved in a reversible fashion pharmacologically, is a well-described strategy to promote lymphopoiesis in the BM and thymus^8,7,14,15. Although the most common method of sex steroid ablation clinically has been to use LHRH-agonists, it was described that an LHRH-Antagonist represents a more rational approach to promote immediate ablation of sex steroids for immune regeneration as it is far more rapid and abrogates the initial surge in sex steroids that LHRH-Agonist cause^16. Taken together with the impact of sex steroid inhibition on HSC function and the rapid regenerative effects of LHRH-Ant, it was hypothesized that LHRH-Ant could represent a rational non-cellular medical countermeasure for mitigating radiation injury and promoting hematopoietic regeneration when administered after hematopoietic insult. […] It was then tested if LHRH-Ant could mediate even greater mouse survival when administered multiple times.
Methods. […] B6.SJL-Ptprca Pepcb/BoyJ (CD45.1) male mice (The Jackson Laboratory) were used between 7 and 12 weeks of age for transplant. Mice were irradiated with a Gammacell 40 Irradiator (Cs-137), with an average dose rate of 95 cGy/min, in a plexiglass mouse pie cage. To assess mouse survival after radiation, mice were monitored for up to 60 days after TBI. To adjust for differences in weight, identical mice were purchased from Jackson and cages randomly distributed over different groups. All animal protocols were approved by the Memorial Sloan Kettering Cancer Center Institutional Animal Care and Use Committee.
Reagents: Degarelix (as acetate), a LHRH-Ant (Firmagon), was resuspended in sterile water for injection and administered S.C. to mice at a dose of 40 mg/kg. To evaluate the radiomitigative effect of LHRH-Ant on survival, mice were treated subcutaneously (S.C.) with a single injection of the LHRH-Ant or a saline control solution (PBS). Degarelix was purchased from the Memorial Sloan-Kettering Cancer Center Pharmacy. […] MDV3100 (selleckchem) was resuspended in a mixture of 45% PBS, 45% PEG and 10% DMSO and administered daily to mice by oral gavage at a dose of 10 mg/kg. 5-FU (InvivoGen) was administered to mice intraperitoneally (I.P.) at a dose of 150 mg/kg once every 7 days consecutively for 3 times as previously described^34,47,49.

With `CC(=O)N[C@H](Cc1ccc2ccccc2c1)C(=O)N[C@H](Cc1ccc(Cl)cc1)C(=O)N[C@H](Cc1cccnc1)C(=O)N[C@@H](CO)C(=O)N[C@@H](Cc1ccc(NC(=O)[C@@H]2CC(=O)NC(=O)N2)cc1)C(=O)N[C@H](Cc1ccc(NC(N)=O)cc1)C(=O)N[C@@H](CC(C)C)C(=O)N[C@@H](CCCCNC(C)C)C(=O)N1CCC[C@H]1C(=O)N[C@H](C)C(N)=O` [LHRH-Ant, Degarelix] (Ac-[d2Nal][dPhe(4-Cl)][d3Pal]S[Phe(4-NH2)](Dihydroorotyl(S))[dPhe(4-NHCONH2)]L[Lys(iPr)]P[dA]-NH2) the “proportion of live LT-HSCs” value (LT-HSCs [1]) was “significantly increased the proportion of live LT-HSCs”, the “expression level of Cdknla (p21)” value (LT-HSCs [2]) was “significantly higher levels” and the “expression level of Hest” value (LT-HSCs [2]) was “significantly higher levels”. For the same compound, the “expression of anti-apoptotic gene Bcl2” value (LT-HSCs [2]) was “significantly increased”, the “expression of anti-apoptotic gene Mcl1” value (LT-HSCs [2]) was “significantly increased” and the “expression of genes related to apoptosis” value (LT-HSCs [2]; p=0.004) was “significant overexpression”. The “expression of genes related to quiescence” value (LT-HSCs [2]; p=0.02) was “significant overexpression”, the “hematopoietic reconstitution of host mice” value (functional HSCs) was “significantly better hematopoietic reconstitution” and the “survival after L-TBI” value (mice exposed to L-TBI; LHRH-Ant given 24 h after L-TBI, vs vehicle, male mice) was “significant increase in survival”. The “survival after L-TBI” value (mice exposed to L-TBI; administered 48 h after L-TBI) was “significantly enhanced mouse survival”, the “survival after L-TBI in female mice” value (mice exposed to L-TBI; female mice) was “statistically significant benefit in survival” and the “survival after L-TBI in surgically castrated mice” value (mice exposed to L-TBI; male mice castrated 5 days prior to TBI, simultaneous LHRH-Ant) was “restored the benefits in mouse survival”. For the same compound, the “survival after L-TBI, multiple administrations” value (mice exposed to L-TBI; treatment 24 h and 15 days after L-TBI, vs single treatment) was “did not significantly enhance the survival benefit”.
